Laboratory results from patent publication US20260265220A1, “GALPHA12 INHIBITORS AND METHODS USING SAME” (RUTGERS, THE STATE UNIVERSITY OF NEW JERSEY, priority 2022, published 2026).
Values joined by “and” are separate entries in the source; they are usually repeats but may differ in a detail not shown here. Identical values can stand only once. “Also recorded” adds a separate entry of the source. Like-named read-outs stand apart in the source and are kept apart here. Blank lines part the entries; values can stand above or below the molecule they belong to.

What was measured:
[1] = molecular target: T1, Gα12 (Homo sapiens, UniProt Q03113); assay: Gα12 luciferase reporter assay in hTERT-SRE immortalized airway smooth muscle cells, carbachol stimulated; type: cell-based; details: carbachol (CCh) stimulated, dose response
T1 sequence (Q03113 1-381): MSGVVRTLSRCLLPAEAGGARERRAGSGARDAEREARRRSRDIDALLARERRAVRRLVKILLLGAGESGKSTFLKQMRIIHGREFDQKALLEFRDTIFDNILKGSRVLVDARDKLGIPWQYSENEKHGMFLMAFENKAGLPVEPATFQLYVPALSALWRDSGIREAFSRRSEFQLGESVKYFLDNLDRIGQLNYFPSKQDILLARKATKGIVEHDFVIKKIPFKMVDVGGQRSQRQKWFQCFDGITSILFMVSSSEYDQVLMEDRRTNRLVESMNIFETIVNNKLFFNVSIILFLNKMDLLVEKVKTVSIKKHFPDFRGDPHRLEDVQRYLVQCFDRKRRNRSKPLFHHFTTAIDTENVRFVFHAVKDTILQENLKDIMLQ
Text: FIGS. 1A-1C show an experimental approach to the identification of Gα12 modulators using hTERT-SRE human telomerase reverse transcriptase immortalized airway smooth muscle cells. FIG. 1A: provides a schematic representation of Gα12-activated luciferase reporter. […] FIG. 1C: provides a detailed schematic showing the downstream effects of Gα12/13 activation and/or inhibition, wherein serum response element (SRE) may be detected by a luciferase assay, and pAKT and pMLC may be detected by Western blotting. A Gα12 luciferase reporter assay was used to evaluate the potential of analogues of compound 1 as bronchodilators (FIGS. 2A-2C), wherein the assay utilized hTERT-SRE telomerase reverse transcriptase immortalized airway smooth muscle cells. In certain embodiments, the Gα12 pathway is activated with carbachol (CCh), resulting in downstream transcription of a […]/luciferase fusion protein (FIG. 1A), and consequently, a fluorescence signal (FIG. 1B). In certain embodiments, detection of a decrease in observed fluorescent signal indicates inhibition of Gα12. Further, activation of the Gα12 pathway results in elevated levels of phosphorylated AKT (pAKT) and MLC (pMLC) (FIG. 1C). In certain embodiments, detection of a decrease in pAKT and/or pMLC indicates inhibition of Gα12.

[2] = tested on: MLC phosphorylation (pMLC); assay: Immunoblot analysis of myosin light chain phosphorylation (pMLC) in airway smooth muscle cells; type: cell-based, human; details: for agonist specificity of the effect on pMLC activation: carbachol versus histamine; for potency and efficacy on carbachol-induced pMLC activation: relative to the parent compound 1 (BDF)
Method: (§1) Compounds 1-3 were evaluated for inhibition of AKT and MLC phosphorylation. As described elsewhere herein, phosphorylation of AKT and/or MLC can occur with activation of the Gα12 pathway. Accordingly, in certain embodiments, detection of a decrease in pAKT and/or pMLC indicates inhibition of Gα12.
(§2) The immunoblot analysis of phosphorylation of myosin light chain (pMLC) was used as a surrogate for ASM contraction. In parallel, phosphorylation of AKT was analogously assessed. AKT is a downstream substrate for phosphoinositide 3-kinase (PI3K) activity, can modulate the activation of the Gα12 pathway in primary human airway smooth muscle cells. These cells are the pivotal cells regulating bronchomotor tone in asthma and chronic obstructive pulmonary disease (COPD) which is emphysema or chronic bronchitis.
(§3) The analogues described herein were further assessed for potency and efficacy in inhibiting AKT and pMLC phosphorylation induced by contractile agonists, carbachol, or histamine. These contractile agonists are pivotal in causing airway smooth muscle contraction and airway obstruction in asthma and COPD.

[3] = tested on: AKT phosphorylation (pAKT); assay: Immunoblot analysis of AKT phosphorylation (pAKT) in airway smooth muscle cells; type: cell-based, human
Method: as §1, §2, §3

[4] = molecular target: T2, ATR/ATRIP(h) (Homo sapiens, UniProt Q13535); assay: Eurofins in vitro kinase activity assay; type: biochemical; details: read-out: ATR/ATRIP(h) kinase activity (human kinase inhibition data)
T2 construct: purchased Eurofins
T2 sequence (Q13535 whole entry): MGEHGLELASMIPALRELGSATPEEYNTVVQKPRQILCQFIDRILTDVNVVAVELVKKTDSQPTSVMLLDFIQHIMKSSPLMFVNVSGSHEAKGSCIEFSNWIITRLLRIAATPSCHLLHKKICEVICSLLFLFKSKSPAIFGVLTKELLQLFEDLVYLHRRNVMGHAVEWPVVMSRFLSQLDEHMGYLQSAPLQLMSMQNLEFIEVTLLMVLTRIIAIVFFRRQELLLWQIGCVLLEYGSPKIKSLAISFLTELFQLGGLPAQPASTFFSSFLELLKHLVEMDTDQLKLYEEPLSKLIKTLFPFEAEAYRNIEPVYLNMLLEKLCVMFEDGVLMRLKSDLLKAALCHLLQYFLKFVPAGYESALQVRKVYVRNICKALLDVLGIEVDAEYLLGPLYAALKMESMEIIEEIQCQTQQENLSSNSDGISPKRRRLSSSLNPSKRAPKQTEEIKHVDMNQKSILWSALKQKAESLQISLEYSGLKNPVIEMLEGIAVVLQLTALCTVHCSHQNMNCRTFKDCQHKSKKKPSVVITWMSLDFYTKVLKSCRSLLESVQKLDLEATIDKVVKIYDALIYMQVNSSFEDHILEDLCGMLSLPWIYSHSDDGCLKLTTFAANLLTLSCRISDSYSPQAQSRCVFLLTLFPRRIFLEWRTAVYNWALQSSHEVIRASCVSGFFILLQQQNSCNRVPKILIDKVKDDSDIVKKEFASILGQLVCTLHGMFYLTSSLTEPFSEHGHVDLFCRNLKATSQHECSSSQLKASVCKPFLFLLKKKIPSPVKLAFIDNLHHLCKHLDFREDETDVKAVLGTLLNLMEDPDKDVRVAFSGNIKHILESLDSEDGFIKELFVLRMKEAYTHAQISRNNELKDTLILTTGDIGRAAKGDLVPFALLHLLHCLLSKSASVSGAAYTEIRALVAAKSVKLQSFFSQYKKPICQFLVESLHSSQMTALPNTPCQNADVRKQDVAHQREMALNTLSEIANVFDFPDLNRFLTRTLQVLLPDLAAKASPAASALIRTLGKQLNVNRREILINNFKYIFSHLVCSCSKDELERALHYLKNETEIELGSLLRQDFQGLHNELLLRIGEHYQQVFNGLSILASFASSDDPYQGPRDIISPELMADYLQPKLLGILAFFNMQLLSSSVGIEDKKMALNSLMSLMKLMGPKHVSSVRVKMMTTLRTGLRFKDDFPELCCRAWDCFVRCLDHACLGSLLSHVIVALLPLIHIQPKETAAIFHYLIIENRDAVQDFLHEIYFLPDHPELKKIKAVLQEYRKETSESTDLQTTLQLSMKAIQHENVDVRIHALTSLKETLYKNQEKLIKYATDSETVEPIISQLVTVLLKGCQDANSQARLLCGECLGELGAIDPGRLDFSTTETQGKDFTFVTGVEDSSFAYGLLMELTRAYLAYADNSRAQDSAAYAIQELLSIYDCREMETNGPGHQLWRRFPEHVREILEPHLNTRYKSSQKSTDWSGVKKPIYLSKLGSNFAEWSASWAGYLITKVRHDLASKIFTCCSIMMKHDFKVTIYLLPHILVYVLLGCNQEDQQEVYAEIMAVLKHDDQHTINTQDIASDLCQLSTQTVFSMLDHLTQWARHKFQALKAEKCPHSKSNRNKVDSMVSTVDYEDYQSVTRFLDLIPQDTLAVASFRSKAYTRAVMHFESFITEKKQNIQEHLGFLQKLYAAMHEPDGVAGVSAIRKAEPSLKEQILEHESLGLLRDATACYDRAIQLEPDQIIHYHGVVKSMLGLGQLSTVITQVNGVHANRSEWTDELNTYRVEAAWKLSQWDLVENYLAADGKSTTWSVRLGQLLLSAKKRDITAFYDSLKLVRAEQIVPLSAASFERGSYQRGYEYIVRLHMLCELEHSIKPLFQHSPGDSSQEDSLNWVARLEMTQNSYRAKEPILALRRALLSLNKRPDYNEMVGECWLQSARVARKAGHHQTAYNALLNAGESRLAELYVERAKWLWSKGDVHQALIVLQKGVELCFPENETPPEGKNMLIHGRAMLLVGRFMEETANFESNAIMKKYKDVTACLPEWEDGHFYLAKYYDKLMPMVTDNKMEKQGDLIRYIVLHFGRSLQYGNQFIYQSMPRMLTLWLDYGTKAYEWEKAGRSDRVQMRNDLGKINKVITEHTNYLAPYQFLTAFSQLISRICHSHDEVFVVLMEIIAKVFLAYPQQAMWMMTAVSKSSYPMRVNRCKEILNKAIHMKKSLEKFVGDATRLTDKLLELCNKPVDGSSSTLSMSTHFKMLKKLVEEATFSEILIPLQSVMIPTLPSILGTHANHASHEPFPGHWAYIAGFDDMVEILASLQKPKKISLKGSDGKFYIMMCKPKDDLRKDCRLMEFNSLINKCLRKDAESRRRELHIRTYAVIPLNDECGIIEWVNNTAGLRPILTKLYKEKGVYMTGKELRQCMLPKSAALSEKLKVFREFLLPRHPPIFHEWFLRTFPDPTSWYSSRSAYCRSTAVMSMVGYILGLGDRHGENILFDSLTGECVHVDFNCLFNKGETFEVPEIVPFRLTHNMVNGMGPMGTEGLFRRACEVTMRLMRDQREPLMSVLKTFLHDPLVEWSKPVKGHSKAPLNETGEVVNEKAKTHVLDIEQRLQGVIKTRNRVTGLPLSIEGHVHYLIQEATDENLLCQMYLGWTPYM
T2 sequence (Q8WXE1 whole entry partner): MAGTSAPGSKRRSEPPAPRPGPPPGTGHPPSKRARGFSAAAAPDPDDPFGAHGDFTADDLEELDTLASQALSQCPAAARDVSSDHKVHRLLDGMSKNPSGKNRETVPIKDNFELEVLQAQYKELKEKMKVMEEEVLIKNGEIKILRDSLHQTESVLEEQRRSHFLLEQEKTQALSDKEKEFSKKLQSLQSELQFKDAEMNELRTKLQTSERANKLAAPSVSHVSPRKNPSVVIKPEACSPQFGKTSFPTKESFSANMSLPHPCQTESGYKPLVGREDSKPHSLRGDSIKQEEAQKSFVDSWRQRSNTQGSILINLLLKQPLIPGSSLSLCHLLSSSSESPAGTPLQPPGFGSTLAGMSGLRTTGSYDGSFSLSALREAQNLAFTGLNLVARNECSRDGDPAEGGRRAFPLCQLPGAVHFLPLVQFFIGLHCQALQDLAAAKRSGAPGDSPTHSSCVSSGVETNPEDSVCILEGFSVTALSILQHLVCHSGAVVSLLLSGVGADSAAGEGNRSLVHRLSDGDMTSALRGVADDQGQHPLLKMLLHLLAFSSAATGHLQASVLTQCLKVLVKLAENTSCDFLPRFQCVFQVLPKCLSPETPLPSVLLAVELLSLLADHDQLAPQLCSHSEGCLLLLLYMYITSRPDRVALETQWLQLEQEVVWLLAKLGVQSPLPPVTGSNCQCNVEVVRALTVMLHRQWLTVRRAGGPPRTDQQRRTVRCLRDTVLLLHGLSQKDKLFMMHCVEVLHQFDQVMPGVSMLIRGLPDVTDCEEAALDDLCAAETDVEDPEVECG
Method: (§4) Using the Eurofins™ platform, a kinase activity assay was performed to identify human kinases inhibited by compound 1. To determine the effects of the compound on kinase activity, varying concentrations of compound 1 (1, 10 and 100 μM) were used with one technical replicate in a standard in vitro kinase activation assay.
(§5) This platform was used to determine the effects of compound 1 on the activity of 113 unique human kinases. Thresholds for kinase activity of interest was set at less than or equal to 60% […] (i.e., for antagonists) or enhanced activity at or above 140% (i.e., for agonists). Further, the validity of the results were confirmed by the occurrence of a dose-dependent response.

[5] = molecular target: T3, Fms(h) (Homo sapiens, UniProt P07333); assay: Eurofins in vitro kinase activity assay; type: biochemical; details: read-out: Fms(h) kinase activity (human kinase inhibition data)
T3 construct: purchased Eurofins
T3 sequence (P07333 20-972): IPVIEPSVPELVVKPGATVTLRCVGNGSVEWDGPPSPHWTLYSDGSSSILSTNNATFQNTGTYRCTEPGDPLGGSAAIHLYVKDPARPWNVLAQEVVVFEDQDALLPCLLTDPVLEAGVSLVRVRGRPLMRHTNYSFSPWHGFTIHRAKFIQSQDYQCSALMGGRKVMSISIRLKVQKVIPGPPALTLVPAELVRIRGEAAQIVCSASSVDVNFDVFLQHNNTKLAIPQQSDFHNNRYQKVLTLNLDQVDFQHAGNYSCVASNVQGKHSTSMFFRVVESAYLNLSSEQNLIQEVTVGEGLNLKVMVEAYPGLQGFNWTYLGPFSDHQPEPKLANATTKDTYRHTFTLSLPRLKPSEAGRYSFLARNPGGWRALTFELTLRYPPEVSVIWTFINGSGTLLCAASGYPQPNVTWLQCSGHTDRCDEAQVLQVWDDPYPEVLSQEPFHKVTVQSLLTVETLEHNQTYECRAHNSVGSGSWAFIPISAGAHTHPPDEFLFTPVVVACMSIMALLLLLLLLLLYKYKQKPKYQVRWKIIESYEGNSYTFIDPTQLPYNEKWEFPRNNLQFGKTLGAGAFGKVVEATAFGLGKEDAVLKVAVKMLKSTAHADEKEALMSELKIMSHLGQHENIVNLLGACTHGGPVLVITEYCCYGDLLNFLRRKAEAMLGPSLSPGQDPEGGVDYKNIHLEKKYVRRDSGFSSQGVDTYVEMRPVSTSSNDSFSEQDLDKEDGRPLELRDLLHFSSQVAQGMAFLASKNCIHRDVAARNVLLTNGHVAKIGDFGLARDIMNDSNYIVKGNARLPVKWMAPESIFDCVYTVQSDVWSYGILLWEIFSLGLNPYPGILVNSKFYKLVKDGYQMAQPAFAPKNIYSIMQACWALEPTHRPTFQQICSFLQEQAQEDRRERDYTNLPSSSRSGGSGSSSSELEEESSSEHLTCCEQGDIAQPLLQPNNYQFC
Method: as §4, §5

[6] = molecular target: T4, IGF-1R(h) (Homo sapiens, UniProt P08069); assay: Eurofins in vitro kinase activity assay; type: biochemical; details: read-out: IGF-1R(h) kinase activity (human kinase inhibition data)
T4 construct: purchased Eurofins
Method: as §4, §5

[7] = molecular target: T5, MAPKAP-K2(h) (Homo sapiens, UniProt P49137); assay: Eurofins in vitro kinase activity assay; type: biochemical
T5 construct: purchased Eurofins
T5 sequence (P49137 whole entry): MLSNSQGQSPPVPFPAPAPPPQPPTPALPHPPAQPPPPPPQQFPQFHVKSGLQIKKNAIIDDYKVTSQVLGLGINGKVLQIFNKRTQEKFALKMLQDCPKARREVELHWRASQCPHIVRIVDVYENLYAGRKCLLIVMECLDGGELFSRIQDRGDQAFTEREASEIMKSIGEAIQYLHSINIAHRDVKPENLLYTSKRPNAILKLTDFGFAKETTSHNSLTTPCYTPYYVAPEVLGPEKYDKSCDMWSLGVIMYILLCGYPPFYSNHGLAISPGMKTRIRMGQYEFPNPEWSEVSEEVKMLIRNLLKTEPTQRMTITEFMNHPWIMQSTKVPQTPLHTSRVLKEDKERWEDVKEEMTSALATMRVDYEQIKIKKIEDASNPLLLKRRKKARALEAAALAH
Method: as §4, §5

[8] = molecular target: T6, PI3Kδ (Homo sapiens, UniProt O00329); assay: Eurofins in vitro kinase activity assay; type: biochemical
T6 construct: purchased Eurofins
Method: as §4, §5

[9] = molecular target: T7, PRAK(h)/MAPKAPK5 (Homo sapiens, UniProt Q8IW41); assay: Eurofins in vitro kinase activity assay; type: biochemical
T7 construct: purchased Eurofins
T7 sequence (Q8IW41 1-473): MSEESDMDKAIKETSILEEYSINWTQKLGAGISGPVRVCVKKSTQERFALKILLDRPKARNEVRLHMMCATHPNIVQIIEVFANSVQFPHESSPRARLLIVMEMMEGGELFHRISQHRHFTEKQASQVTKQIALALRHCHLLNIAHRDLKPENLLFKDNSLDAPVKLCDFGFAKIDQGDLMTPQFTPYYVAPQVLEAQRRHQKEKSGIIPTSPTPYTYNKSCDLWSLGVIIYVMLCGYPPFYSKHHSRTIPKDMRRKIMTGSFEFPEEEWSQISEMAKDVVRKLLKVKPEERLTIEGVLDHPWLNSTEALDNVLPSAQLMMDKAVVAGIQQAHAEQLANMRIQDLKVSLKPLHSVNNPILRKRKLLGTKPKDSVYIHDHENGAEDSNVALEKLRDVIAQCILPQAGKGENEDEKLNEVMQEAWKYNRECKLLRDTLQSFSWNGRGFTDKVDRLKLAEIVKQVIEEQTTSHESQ
Method: as §4, §5

[10] = molecular target: T8, TrkA(h) (Homo sapiens, UniProt P04629); assay: Eurofins in vitro kinase activity assay; type: biochemical; details: read-out: TrkA(h) kinase activity (human kinase inhibition data)
T8 construct: purchased Eurofins
Method: as §4, §5

[11] = molecular target: T9, mTOR(h) (Homo sapiens, UniProt P42345); assay: Eurofins in vitro kinase activity assay; type: biochemical; details: read-out: mTOR(h) kinase activity (human kinase inhibition data)
T9 construct: purchased Eurofins
Method: as §4, §5

[12] = tested on: 113 unique human kinases; assay: Eurofins kinase activity panel; type: biochemical; details: 1, 10 and 100 μM
Method: as §4, §5

[13] = compound at 100 μM (FIGS. 4A-4B)
[14] = compound at 100 μM (FIGS. 4C-4D)

Structure (SMILES): CC(C)(NC(=O)Cc1ccccc1F)C(=O)N1CCOCC(Cc2cccc3ccncc23)C1 (centres unmarked) [BDH, 2-(2-fluorophenyl)-N-(1-(6-(isoquinolin-8-ylmethyl)-1,4-oxazepan-4-yl)-2-methyl-1-oxopropan-2-yl)acetamide, reference compound]
- modulation of Gα12 luciferase reporter signal (agonist/antagonist) [1]: dose-dependent activation

Structure (SMILES): Cc1ccc(Cc2ccc(C3CN(C(=O)c4cnc(C)cn4)CCO3)nc2)cc1 (centres unmarked) [Compound 2, (2-(5-(4-methylbenzyl)pyridin-2-yl)morpholino)(5-methylpyrazin-2-yl)methanone]
- modulation of Gα12 luciferase reporter signal (agonist/antagonist) [1]: Gα12 antagonists
- agonist specificity of the effect on pMLC activation [2]: specific for carbachol rather than histamine
- potency and efficacy on carbachol-induced pMLC activation [2]: improved potency and efficacy

Structure (SMILES): CCN1CCC(CC(=O)N2CCOC(c3ccc(-c4cccc(OC)c4)cn3)C2)CC1 (centres unmarked) [Compound 3, 2-(1-ethylpiperidin-4-yl)-1-(2-(5-(3-methoxyphenyl)pyridin-2-yl)morpholino)ethan-1-one]
- modulation of Gα12 luciferase reporter signal (agonist/antagonist) [1]: Gα12 antagonists
- pAKT ([3]; compound at 10 μM (FIGS. 4A-4B)): decrease; also recorded: significantly decreased
- pAKT [3, 13]: decrease; also recorded: significantly decreased
- agonist specificity of the effect on pMLC activation [2]: specific for carbachol rather than histamine
- pMLC ([2]; compound at 10 μM (FIGS. 4C-4D)): decrease; also recorded: significantly decreased
- pMLC [2, 14]: decrease; also recorded: significantly decreased
- potency and efficacy on carbachol-induced pMLC activation [2]: improved potency and efficacy

Structure (SMILES): FC(F)(F)c1cccc(Cc2ccc(C3CN(Cc4cccnc4)CCO3)nc2)c1 (centres unmarked) [Compound 5, 4-(pyridin-3-ylmethyl)-2-(5-(3-(trifluoromethyl)benzyl)pyridin-2-yl)morpholine]
- inhibition of AKT phosphorylation (pAKT) by agonists ([3]; contractile agonists carbachol or histamine): inactive
- agonist-induced pMLC activation ([2]; contractile agonists carbachol or histamine, FIGS. 6A-6B): inactive

- activity at 1 µM ([4]; compound at 1 μM): 101%
- activity at 10 µM ([4]; compound at 10 μM): 91%
- activity at 100 µM ([4]; compound at 100 μM): 65%
- activity at 1 µM ([5]; compound at 1 μM): 95%
- activity at 10 µM ([5]; compound at 10 μM): 94%
- activity at 100 µM ([5]; compound at 100 μM): 64%
- activity at 1 µM ([6]; compound at 1 μM): 103%
- activity at 10 µM ([6]; compound at 10 μM): 91%
- activity at 100 µM ([6]; compound at 100 μM): 61%
- MAPKAP-K2 inhibition, dose dependence ([7]; 1, 10 and 100 μM): inhibited in a dose-dependent manner
- activity at 1 µM ([7]; compound at 1 μM, read-out: MAPKAP-K2(h) kinase activity (human kinase inhibition data)): 90%
- activity at 10 µM ([7]; compound at 10 μM, read-out: MAPKAP-K2(h) kinase activity (human kinase inhibition data)): 77%
- activity at 100 µM ([7]; compound at 100 μM, read-out: MAPKAP-K2(h) kinase activity (human kinase inhibition data)): 65%
- Aggregate Mean (of raw counts) ([8]; compound at 1 μM): 16175
- activity at 1 µM ([8]; compound at 1 μM, read-out: Kinase Activity (%), mean of replicates): 91%
- Raw Counts ([8]; compound at 1 μM, single replicates): 15209.80926 and 17139.70182
- Kinase Activity (%) ([8]; compound at 1 μM, single replicates, 1 µM): 86%
- activity at 1 µM ([8]; compound at 1 μM, single replicates, read-out: Kinase Activity (%)): 95%
- Aggregate Mean (of raw counts) ([8]; compound at 10 μM): 15960
- activity at 10 µM ([8]; compound at 10 μM, read-out: Kinase Activity (%), mean of replicates): 92%
- Raw Counts ([8]; compound at 10 μM, single replicates): 15948.27586 and 15971.06288
- activity at 10 µM ([8]; compound at 10 μM, single replicates, read-out: Kinase Activity (%)): 92%
- Aggregate Mean (of raw counts) ([8]; compound at 100 μM): 17900
- activity at 100 µM ([8]; compound at 100 μM, read-out: Kinase Activity (%), mean of replicates): 83%
- Raw Counts ([8]; compound at 100 μM, single replicates): 17495.26814 and 18305.46265
- Kinase Activity (%) ([8]; compound at 100 μM, single replicates, 100 µM): 81%
- activity at 100 µM ([8]; compound at 100 μM, single replicates, read-out: Kinase Activity (%)): 85%
- PRAK/MAPKAPK5 inhibition, dose dependence ([9]; 1, 10 and 100 μM): inhibited in a dose-dependent manner
- activity at 1 µM ([9]; compound at 1 μM, read-out: PRAK(h)/MAPKAPK5 kinase activity (human kinase inhibition data)): 115%
- activity at 10 µM ([9]; compound at 10 μM, read-out: PRAK(h)/MAPKAPK5 kinase activity (human kinase inhibition data)): 92%
- activity at 100 µM ([9]; compound at 100 μM, read-out: PRAK(h)/MAPKAPK5 kinase activity (human kinase inhibition data)): 40%
- activity at 1 µM ([10]; compound at 1 μM): 106%
- activity at 10 µM ([10]; compound at 10 μM): 123%
- activity at 100 µM ([10]; compound at 100 μM): 41%
- activity at 1 µM ([11]; compound at 1 μM): 103%
- activity at 10 µM ([11]; compound at 10 μM): 104%
- activity at 100 µM ([11]; compound at 100 μM): 70%
- specificity: effect on the overwhelming majority of the 113 human kinases [12]: little to no effect
- number of kinases exhibiting dose dependent inhibition ([12]; of 113 human kinases): 7
- number of kinases with agonism observed ([12]; of 113 human kinases, none relevant in human airway smooth muscle): 4
Structure (SMILES): O=C(CCn1ncc2ccccc21)N1CCOC(c2ccc(Cc3ccc(F)cc3)cn2)C1 (centres unmarked) [compound 1, 1-(2-(5-(4-fluorobenzyl)pyridin-2-yl)morpholino)-3-(1H-indazol-1-yl)propan-1-one]
- modulation of Gα12 luciferase reporter signal (agonist/antagonist) [1]: inhibition
- pAKT [3, 13]: decreased
- pMLC [2, 14]: decreased
